Measurements taken from US10369131B2, “Ultrapure tetrahydrocannabinol-11-oic acids” (Corbus Pharmaceuticals, Inc., priority 2013, dated 2019).
“Also recorded” adds a separate entry of the source.

Assays:
[1] = test system: HL-60 cells; assay: PGJ synthesis in HL-60 cells (ELISA); format: cell-based; conditions: TNFα 10 nM, with CB2 or CB1 antagonist, N=4
Procedure: The CB2 antagonist SR144528 reduced ultrapure AJA-induced PGJ synthesis in HL60 immune system cells at low concentrations (squares). […] DMSO control (open circles). Treatments of cells was carried out in 48 well plates with 20,000 cells/500 μl RPMI/FCS media/well. Cells were incubated for 20 hrs at 37° C. and 5% CO2. Media was changed to 500 μl of serum free RPMI and TNFα (10 nM) added. […] N=4.

[2] = test system: female CD-1 mice; assay: Mouse hot plate test for antinociception; format: in vivo
[3] = biological target: T1, hCB2 receptor (Homo sapiens, UniProt P34972); assay: biochemical
Description: (§1) When the CB1 or CB2 receptor is activated by an agonist, the affinity of the G protein alpha subunit increases with respect to GTP vs. GDP. As a consequence, GDP is displaced from the G protein and GTP or GTPγS binds. If a radioactive label, such as [^35S], is attached to the GTPγS molecule, then the formation of the G protein/[^35S]GTPγS complex can be directly measured using liquid scintillation spectrophotometry.
(§2) The CB1 and CB2 receptor assays involve membrane preparations purchased from Perkin Elmer (Waltham, Mass.) isolated from a HEK-293 expression system. G-protein coupled signal transduction (GTP-γ-[35S]) assays of test compounds were conducted in an incubation mixture consisting of a test compound (250 nM-1 mM), GDP (20 μM), GTP-γ-[35S] (100 pM), and the hCB1 and hCB2 membrane preparations (0.4 pM) in a total volume of 0.4 mL of assay buffer (50 mM TRIS-HCl, pH 7.4, 1 mM EDTA, 100 mM NaCl, 5 mM MgCl2, 0.5% (w/v) BSA). Nonspecific binding was determined in the presence of 100 μM unlabeled GTP-γ-S, and basal binding was determined in the absence of drug. Duplicate samples were incubated for 1 h at 30° C., and the bound complex was filtered from the reaction mixture as described previously and counted in a liquid scintillation counter. Specific binding was calculated by subtracting nonspecific binding from total binding and dividing by the total basal binding minus nonspecific binding. Data were plotted and analyzed with GraphPad Prism (GraphPad Software, Inc., San Diego, Calif.).

[4] = test system: female CD-1 mice; assay: Rectal temperature (mouse hypothermia assay); conditions: oral 0.05-56 mg/kg, 90 min after administration
Procedure: Compounds were administered at a volume of […] via oral gavage.
Female CD-1 mice (20-25 g), obtained from Charles River (Raleigh, N.C.), were used for assessment in hot plate nociception, rectal temperature, and ring immobility assays. Separate mice were used for testing each dose of each compound in this battery of procedures. The mice had free access to food and water when in their home cages. All animals were kept in a temperature-controlled (20-22° C.) environment with a 12-hour light-dark cycle (lights on at 7 a.m.).
Each mouse was tested in a battery of three tests, in which cannabinoid CB1 agonists produce in vivo effects in mice (Martin et al., 1991): antinociception (hot plate assay), decreased rectal temperature and ring immobility. Prior to administration of the test compound, rectal temperature and baseline latency in the hot plate test were measured in the mice. The latter procedure involved placing the mouse on a heated surface (mouse cold/hot plate analgesia apparatus; Stoelting, Wood Dale, Ill.) at a setting of 55° C. Time until the mouse lifts or licks a paw was measured, whereupon the mouse was removed from the apparatus. […] Subsequently, the mice were placed on a 5.5 cm ring attached at a height of 16 cm to a ring stand, and the amount of time the animals remained motionless during a 5 min period was recorded. In addition, the number of times the mouse fell or jumped off the ring was recorded. […]
Rectal temperature values were expressed as the difference between control temperature (before injection) and temperature following drug administration (Δ° C.). Antinociception was expressed as the percent maximum possible effect (MPE) using a 30-s maximum test latency as follows: [(test−control)/(30−control)]×100. During assessment for catalepsy, the total amount of time (in seconds) that the mouse remained motionless on the ring apparatus (except for breathing and whisker movement) was measured and was used as an indication of catalepsy-like behavior. […]

[5] = biological target: T2, CB1 receptor (Homo sapiens, UniProt P21554); assay: biochemical
Description: as §1, §2

[6] = biological target: T2, CB1 receptor; assay: CB receptor radioligand binding assay, human CB1; design: expressed in transfected cells; host or cells: HEK-293T
Procedure: Membrane preparation—HEK-293T cells were cultured according to ATCC (Manassas, Va.) guidelines and transfected with human CB1 cDNA (Genbank X54937) or CB2 cDNA (Genbank X74328), operably linked to the SV40 promoter, using Polyfect (Qiagen, Valencia, Calif.) or Fugene (Roche, Nutley, N.J.) according to manufacturer's instructions. 48 h after transfection, cells were harvested in ice cold membrane buffer (20 mM HEPES, 6 mM MgCl2, 1 mM EDTA, pH 7.2) using a cell scraper. Cells were transferred to a nitrogen cavitation chamber and a pressure of […] was applied for 30 min. The pressure was released and the cell debris was collected and centrifuged at 1000 g at 4° C. for 10 min. The supernatant was collected and the spin was repeated until the supernatant was free of precipitate. […] The membrane concentration was determined using a BioRad (Hercules, Calif.) protein assay dye reagent according to manufacturer's instructions. […]
Membranes were incubated for 2 hr at room temperature, then filtered onto a presoaked (with 0.1% polyethylenimine for 1 to 2 hr) 96 well GF/B filterplate (Packard Bioscience, Shelton, Conn.) and washed with […] ice cold wash buffer (25 mM HEPES, 1 mM CaCl2, 5 mM MgCl2, 0.25M NaCl) using a Filtermate 196 Harvester (Packard Instruments, Downers Grove, Ill.). […] Plates were counted on a Topcount NXT (Packard, Shelton, Conn.). […]

[7] = biological target: T1, hCB2 receptor
Description: as §1, §2

T2 sequence (P21554 whole entry): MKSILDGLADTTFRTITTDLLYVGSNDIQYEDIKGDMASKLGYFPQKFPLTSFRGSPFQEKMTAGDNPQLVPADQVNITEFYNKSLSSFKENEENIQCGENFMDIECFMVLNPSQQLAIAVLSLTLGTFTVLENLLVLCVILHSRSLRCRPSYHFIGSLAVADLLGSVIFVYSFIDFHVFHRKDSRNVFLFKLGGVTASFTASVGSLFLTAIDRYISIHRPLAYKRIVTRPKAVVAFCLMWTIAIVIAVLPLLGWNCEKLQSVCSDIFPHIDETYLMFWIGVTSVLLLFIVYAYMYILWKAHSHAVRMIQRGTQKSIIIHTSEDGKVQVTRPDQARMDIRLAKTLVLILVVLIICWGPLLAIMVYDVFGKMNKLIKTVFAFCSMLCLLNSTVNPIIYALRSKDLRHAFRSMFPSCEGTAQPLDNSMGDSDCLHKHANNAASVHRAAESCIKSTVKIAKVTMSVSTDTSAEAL
T1 sequence (P34972 whole entry): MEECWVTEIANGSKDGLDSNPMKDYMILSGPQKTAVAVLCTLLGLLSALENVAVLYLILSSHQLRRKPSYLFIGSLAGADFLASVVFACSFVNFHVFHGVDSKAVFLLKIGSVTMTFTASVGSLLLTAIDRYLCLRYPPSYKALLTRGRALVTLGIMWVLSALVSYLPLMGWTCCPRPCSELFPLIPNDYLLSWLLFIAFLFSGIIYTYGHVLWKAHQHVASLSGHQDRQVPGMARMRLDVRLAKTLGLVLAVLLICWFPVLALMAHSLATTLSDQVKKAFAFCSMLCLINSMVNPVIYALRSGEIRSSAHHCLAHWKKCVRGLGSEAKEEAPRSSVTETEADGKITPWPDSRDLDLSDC

CCCCCCC(C)(C)c1cc(O)c2c(c1)OC(C)(C)[C@@H]1CC=C(C(=O)O)C[C@@H]21 [JBT-101, (6aR,10aR)-3-(1′,1′-dimethylheptyl)-Δ8-tetrahydro-cannabinol-9-carboxylic acid]
stimulation of PGJ in HL-60 cells [1]: CB2 specificity
doses required to see analgesia compared with AJA from U.S. Pat. No. 5,338,753 ([2]; dose response 0.05 to 56 mg/kg oral): required much higher doses
antinociception in the hot plate test (% MPE) ([2]; oral 0.05-56 mg/kg, 90 min after administration, vs vehicle): None of the doses tested produced significant antinociception
doses at which active in the mouse hot plate assay ([2]; oral, FIG. 15): ≥ 30 mg/kg
EC50 ([3]; hCB2 EC50 Mean (±SEM), GTP-γ-35S turnover, mean of 4 repetitions): 1020 ± 92 nM
EC50 ([3]; hCB2 EC50 Rep 1, GTP-γ-35S turnover, replicate 1): 930 nM
EC50 ([3]; hCB2 EC50 Rep 2, GTP-γ-35S turnover, replicate 2): 815 nM
EC50 ([3]; hCB2 EC50 Rep 3, GTP-γ-35S turnover, replicate 3): 1230 nM
EC50 ([3]; hCB2 EC50 Rep 4, GTP-γ-35S turnover, replicate 4): 1100 nM
change in rectal temperature (hypothermia) [4]: None of the doses tested produced significant; also recorded: inactive
EC50 ([5]; hCB1 EC50 Mean (±SEM), GTP-γ-35S turnover, mean of 4 repetitions): 9210 ± 2040 nM
EC50 ([5]; hCB1 EC50 Rep 1, GTP-γ-35S turnover, replicate 1): 13700 nM
EC50 ([5]; hCB1 EC50 Rep 2, GTP-γ-35S turnover, replicate 2): 5830 nM
EC50 ([5]; hCB1 EC50 Rep 3, GTP-γ-35S turnover, replicate 3): 11600 nM
EC50 ([5]; hCB1 EC50 Rep 4, GTP-γ-35S turnover, replicate 4): 5660 nM
Ki [6]: 628 ± 6 nM
potency in the GTP-gamma-S assay better in the CB2 assay than in the CB1 assay ([7]; FIG. 13): ~10 ×
difference in potency for activation of CB2 versus CB1 receptors ([7]; GTP-γ-35S EC50 CB1 vs CB2): 9 fold
